Reference: US20150322033A1, “ANTIBACTERIAL AGENT” (priority 2012, published 2015)
In brackets after ≈: the same amount, converted by molar mass. Like-named read-outs stand apart in the source and are kept apart here.

How the values were obtained:
[1] = test system: S. aureus Mu50; assay: microbe, parasite or virus in culture; format: cell-based, Staphylococcus aureus; details: for MIC ratio: (MIC value for S. aureus FDA209P)/(MIC value for S. aureus Mu50); for MIC: Staphylococcus aureus; for MIC (mg/L) Mu50: Example 1, Tables 1 to 10
Procedure: (§1) S. aureus Mu50 (refer to Hiramatsu, K., Hanaki H., et al., J. Antimicrob. Chemother., 1997, 40(1), 135-6) or S. aureus FDA209P (ATCC 6538P) was cultured overnight at 37° C. in 4 mL of TBS (Tryptical Soy Broth, produced by Becton Dickinson) with shaking. After completion of the culture, the cells were suspended in fresh TBS to prepare a cell suspension showing an absorbance of 0.3 at 578 nm. Then, the cell suspension was diluted 500 times with CAMHB mentioned above.
(§2) CAMHB containing each test compound at each of the aforementioned concentrations was added to each well of a 96-well plate in a volume of 50 μL/well, the aforementioned cell suspension diluted 500 time was added to the well in a volume of 50 μL/well, and stationary culture was carried out overnight at 37° C.
(§3) MIC values (mg/L) of the flavones and quinolones against the strains were measured in the same manner as that of the measurement of MIC of Example 1, except that CAMHB containing each of the aforementioned flavones and quinolones prepared in Example 2 was used instead of CAMHB containing each of the test compounds.
(§4) MIC values of the flavones and quinolone for the strains were measured in the same manners as those of Example 1, except that S. aureus Mu50 NR-1 was also used as Staphylococcus aureus in addition to S. aureus FDA209P and S. aureus Mu50, cell suspensions of the strains were prepared.
(§5) In the same manner as that of Example 1, MIC values of M-246, M-21, J-Q21, and J-Q12.1 for Staphylococcus aureus were measured. M-246 and M-21 were obtained as commercial products, and as J-Q21 and J-Q12.1, those synthesized in Examples 6 and 7 were used.

[2] = test system: S. aureus FDA209P (ATCC 6538P); assay: microbe, parasite or virus in culture; format: cell-based, Staphylococcus aureus; details: for MIC: Staphylococcus aureus
Procedure: as §1, §2, §3, §4, §5

[3] = test system: S. aureus Mu50 NR1-1; assay: MIC by broth microdilution, S. aureus Mu50 NR1-1; format: cell-based; details: Staphylococcus aureus, MU50NR11; Example 3, Table 13; read-out: MIC (mg/L) Mu50 NR1-1 (S80F, w)
Procedure: as §4
S. aureus Mu50 NR1-1 mentioned in Table 13 is a strain selected stepwise from the clinically isolated S. aureus Mu50 strain with deoxynybomycin, and it has a topoisomerase IV encoded by parC in which a […] (see, Hiramatsu K. et al., J. Antimicrob. Agents, 2012, June; 39 (6), 478-85).
In Table 13, the descriptions in the parentheses after the strains indicate the mutated amino acid residue and its position, as represented by (the mutation of topoisomerase IV resulting from the mutation of parCand the mutation of DNA gyrase resulting from the mutation of gyrA). The character “w” means wild-type, representing without mutation.

[4] = MU50, read-out: MIC (mg/L) Mu50, Example 1, Tables 1 to 10
[5] = MU50, read-out: MIC (mg/L) S. aureus Mu50, Example 2, Table 12
[6] = Example 1, Tables 1 to 10, read-out: MIC (mg/L) FDA209P
[7] = Example 2, Table 12, read-out: MIC (mg/L) S. aureus FDA209P
[8] = Example 3, Table 13, read-out: MIC (mg/L) FDA209P (w, w)
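Throughout, for MIC ratio: ratio is FDA209P MIC divided by Mu50 MIC.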

Structure (SMILES)	MIC [1, 4] [mg/L]	MIC [2, 6] [mg/L]	MIC (mg/L) Mu50 [1] [mg/L]	MIC (mg/L) FDA209P ([2]; Example 1, Tables 1 to 10) [mg/L]	also measured
COc1cc(-c2oc3c(OC)c(O)cc(O)c3c(=O)c2O)ccc1O [No. 38, 3,5,7-trihydroxy-2-(4-hydroxy-3-methoxyphenyl)-8-methoxychromen-4-one]	32 (≈ 92.4 µM)	128 (≈ 370 µM)	–	–	MIC ratio [1]: 4; MIC [1, 5]: 32 mg/L (≈ 92.4 µM); MIC [2, 7]: 128 mg/L (≈ 370 µM); MIC [2, 8]: 128 mg/L (≈ 370 µM); MIC [3]: 64 mg/L (≈ 185 µM)
CCn1cc(C(=O)O)c(=O)c2cc(F)c(N3CCNCC3)cc21 [Norfloxacin, norfloxacin, reference compound]	–	–	–	–	MIC ratio [1]: 0.008; MIC [1, 5]: 64 mg/L (≈ 200 µM); MIC [2, 7]: 0.5 mg/L (≈ 1.57 µM); MIC [2, 8]: 0.5 mg/L (≈ 1.57 µM); MIC [3]: 16 mg/L (≈ 50.1 µM)
COc1cc(O)c2c(=O)c(OC)c(-c3ccc(O)c(OC)c3)oc2c1 [No. 66, 5-hydroxy-2-(4-hydroxy-3-methoxyphenyl)-3,7-dimethoxychromen-4-one]	32 (≈ 92.9 µM)	128 (≈ 372 µM)	–	–	MIC ratio [1]: 4; MIC [1, 5]: 32 mg/L (≈ 92.9 µM); MIC [2, 7]: 128 mg/L (≈ 372 µM); MIC [2, 8]: 128 mg/L (≈ 372 µM); MIC [3]: 128 mg/L (≈ 372 µM)
O.O=c1c(O)c(-c2ccc(O)c(O)c2)oc2cc(O)cc(O)c12 [No. 1, 3,3′,4′,5,7-Pentahydroxyflavone Hydrate]	≤ 32	64	–	–	MIC ratio [1]: 2; MIC [1, 5]: 32 mg/L; MIC [2, 7]: 64 mg/L; MIC [2, 8]: 64 mg/L; MIC [3]: 64 mg/L
COc1ccc(-c2c(C(=O)O)oc3cc(OC)cc(OC)c3c2=O)cc1 [compound 92]	> 128	> 128	–	–	–
O=c1c(-c2ccc(O[C@@H]3O[C@H](CO)[C@@H](O)[C@H](O)[C@H]3O)cc2)coc2cc(O)cc(O)c12 [compound 120]	–	–	>128	>128	–
COc1cc(O)c2c(=O)c(-c3ccc(OC4OC(CO)C(O)C(O)C4O)cc3)coc2c1 (stereo not shown) [compound 78]	–	–	>128	>128	–
COc1cc(O)c(CN2CCCCC2)c2oc(-c3ccccc3)cc(=O)c12 [compound 48]	–	–	>128	128 (≈ 350 µM)	–
O=c1cc(-c2ccc(O)cc2)oc2cc(O)c(O)c(O)c12 [compound 41]	128 (≈ 447 µM)	128 (≈ 447 µM)	–	–	–
COc1ccc(-c2c(C)oc3cc(OC(C)=O)cc(OC(C)=O)c3c2=O)cc1 [compound 119]	> 128	> 128	–	–	–
O=c1cc(-c2ccccc2)oc2ccc(O)cc12 [compound 13]	–	–	>128	>128	–
CC1(CO)C=Cc2c(cc3occ(-c4ccc(O)cc4)c(=O)c3c2O)O1 (stereo not shown) [compound 122]	> 128	> 128	–	–	–
O=C1CC(c2cccc(O)c2)Oc2ccccc21 (stereo not shown) [compound 124, 3′-Hydroxyflavanone]	128 (≈ 533 µM)	128 (≈ 533 µM)	–	–	–
COc1ccc(-c2cc(=O)c3c(OC)c(OC)c(OC)c(OC)c3o2)cc1 [compound 30]	> 128	128 (≈ 344 µM)	–	–	–
CC(=O)Oc1cc(OC(C)=O)c2c(=O)c(-c3cc4c(cc3C)OCCO4)c(C)oc2c1 [compound 89]	–	–	128 (≈ 302 µM)	128 (≈ 302 µM)	–
COc1cc(OC)c2c(=O)cc(-c3ccccc3)oc2c1C [compound 21]	–	–	>128	>128	–
COc1ccc(-c2oc3cc4c(c(OC)c3c(=O)c2OC)OCO4)cc1 [compound 32]	–	–	>128	>128	–
COc1ccc(-c2coc3cc(OC(=O)N(C)C)cc(O)c3c2=O)cc1OC [compound 79]	–	–	–	–	MIC ([1]; MU50, read-out: MIC (mg/L) Mu50): > 128 mg/L; MIC ([2]; read-out: MIC (mg/L) FDA209P): > 128 mg/L
O=C(O)C1OC(Oc2cc(O)c3c(=O)cc(-c4ccc(O)c(O)c4)oc3c2)C(O)C(O)C1O (stereo not shown) [compound 62]	–	–	>128	>128	–
CC(=O)Oc1cc(OC(C)=O)c2c(=O)c(-c3ccc4c(c3)OCCO4)c(C)oc2c1 [compound 77]	–	–	>128	>128	–
O=c1c(-c2ccc3c(c2)OCCO3)coc2cc(O)cc(O)c12 [compound 106]	–	–	64 (≈ 205 µM)	64 (≈ 205 µM)	–
O=C(O)C1OC(Oc2ccc(-c3cc(=O)c4c(O)cc(O)cc4o3)cc2O)C(O)C(O)C1O (stereo not shown) [compound 67]	–	–	128 (≈ 277 µM)	128 (≈ 277 µM)	–
O=c1cc(-c2ccccc2)oc2ccc3ccccc3c12 [compound 57]	–	–	128 (≈ 470 µM)	128 (≈ 470 µM)	–
